Assay results published in patent US20100298141A1, “SUBSTITUTED PYRIDINE N-OXIDE HERBICIDES” (E. I. DU PONT DE NEMOURS AND COMPANY, priority 2007, published 2010).

Assays:
[1] = test system: Goosegrass; assay: Test C pre-/postemergence test; type: in vivo, Eleusin indica
Outline: (§1)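 Compounds in a non-phytotoxic solvent with surfactant applied preemergence to seeded pots and, at the same time, postemergence to plants 2–18 cm tall (1- to 4-leaf stage). Paddy tests: pots flooded to 3 cm, compound applied into the water, depth held throughout.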

[2] = test system: cocklebur; assay: Test C pre-/postemergence test; type: in vivo, Xanthium strumarium; conditions: for Plant response rating, Cocklebur: scale 0 to 100, 0 no effect, 100 complete control
Outline: as §1

[3] = test system: Surinam grass; assay: Test C pre-/postemergence test; type: in vivo, Brachiaria decumbens
Outline: as §1

[4] = test system: crabgrass; assay: Test C pre-/postemergence test; type: in vivo, Digitaria sanguinalis
Outline: as §1

[5] = test system: bermudagrass; assay: Test C pre-/postemergence test; type: in vivo, Cynodon dactylon
Outline: as §1

[6] = test system: common (oilseed) sunflower; assay: Test C pre-/postemergence test; type: in vivo, Helianthus annuus
Outline: as §1

[7] = test system: lambsquarters; assay: Test C pre-/postemergence test; type: in vivo, Chenopodium album; conditions: Postemergence; for Plant response rating, Lambsquarters: scale 0 to 100, 0 no effect, 100 complete control
Outline: as §1

[8] = test system: soybean; assay: Test C pre-/postemergence test; type: in vivo, Glycine max
Outline: as §1

[9] = test system: morningglory; assay: Test A pre-/postemergence greenhouse test; type: in vivo, Ipomoea spp.; conditions: for Plant response rating, Morningglory: 0 to 100 scale where 0 is no effect and 100 is complete control; for Morningglory plant response rating: 0 to 100 scale
Outline: (§2)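 Untreated controls served as the reference for visual injury ratings taken about ten days after spraying. The non-phytotoxic solvent/surfactant formulation was applied preemergence to seeded loam and sand and postemergence to plants two to ten cm high.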

[10] = test system: giant foxtail; assay: Test A pre-/postemergence greenhouse test; type: in vivo, Setaria faberi; conditions: for Plant response rating, Foxtail, Giant: 0 to 100 scale where 0 is no effect and 100 is complete control; for Foxtail, Giant plant response rating: 0 to 100 scale
Outline: as §2

[11] = test system: Italian ryegrass; assay: Test C pre-/postemergence test; type: in vivo, Lolium multiflorum
Outline: as §1

[12] = test system: kochia; assay: Test C pre-/postemergence test; type: in vivo, Kochia scoparia
Outline: as §1

[13] = test system: crabgrass; assay: Test A pre-/postemergence greenhouse test; type: in vivo, Digitaria sanguinalis; conditions: for Plant response rating, Crabgrass, Large: 0 to 100 scale where 0 is no effect and 100 is complete control; for Crabgrass, Large plant response rating: 0 to 100 scale
Outline: as §2

[14] = test system: barnyardgrass; assay: Test A pre-/postemergence greenhouse test; type: in vivo, Echinochloa crus-galli; conditions: for Plant response rating, Barnyardgrass: 0 to 100 scale where 0 is no effect and 100 is complete control; for Barnyardgrass plant response rating: 0 to 100 scale
Outline: as §2

[15] = test system: umbrella sedge; assay: Test C flooded paddy test; type: in vivo, Cyperus difformis; conditions: Flood, 62 g ai/ha; scale 0 to 100 (0 no effect, 100 complete control)
Outline: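 Test compounds are applied straight into paddy water held 3 cm above the soil surface, with that flood maintained for the whole test. After 13 to 15 days in the greenhouse, each species is scored visually relative to controls.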

[16] = test system: pigweed; assay: Test C pre-/postemergence test; type: in vivo, Amaranthus retroflexus
Outline: as §1

[17] = 62 g ai/ha, Preemergence, scale 0 to 100
[18] = 125 g ai/ha, preemergence, scale 0 (no effect) to 100 (complete control)
[19] = Postemergence, 62 g ai/ha, scale 0 to 100, 0 no effect, 100 complete control
[20] = Postemergence, 125 g ai/ha, scale 0 to 100, 0 no effect, 100 complete control
[21] = Postemergence, 250 g ai/ha, scale 0 to 100, 0 no effect, 100 complete control
[22] = Preemergence, 31 g ai/ha, scale 0 to 100 (0 no effect, 100 complete control)
[23] = preemergence, 250 g ai/ha, scale 0 (no effect) to 100 (complete control)
[24] = Postemergence, 500 g ai/ha, 0 is no effect, 100 is complete control
[25] = Preemergence, 125 g ai/ha, 0 no effect, 100 complete control

SMILES: Cn1nc(C(F)(F)F)c(C[S+]([O-])c2ccc(F)c[n+]2[O-])c1OCC(F)(F)F (stereo not shown) [Compound 67]
- Goosegrass plant response rating [1, 17]: 100
- Goosegrass plant response rating [1, 18]: 100
- Plant response rating (0 to 100), Goosegrass ([1]; Postemergence, 31 g ai/ha): 0
- Plant response rating, Goosegrass [1, 19]: 0
- Plant response rating, Goosegrass [1, 20]: 50
- Plant response rating, Goosegrass [1, 21]: 90
- Plant response rating, Goosegrass [1, 22]: 100
- Goosegrass plant response rating [1, 23]: 100
- Cocklebur plant response rating [2, 18]: 0
- Plant response rating (0 to 100), Cocklebur ([2]; Postemergence, 31 g ai/ha): 0
- Plant response rating, Cocklebur ([2]; Postemergence, 62 g ai/ha): 0
- Plant response rating, Cocklebur ([2]; Postemergence, 125 g ai/ha): 0
- Plant response rating, Cocklebur ([2]; Postemergence, 250 g ai/ha): 0
- Surinam Grass plant response rating [3, 17]: 100
- Surinam Grass plant response rating [3, 18]: 100
- Plant response rating (0 to 100), Surinam Grass ([3]; Postemergence, 31 g ai/ha): 0
- Plant response rating (0 to 100), Surinam Grass ([3]; Postemergence, 62 g ai/ha): 0
- Plant response rating, Surinam Grass [3, 20]: 30
- Plant response rating, Surinam Grass [3, 21]: 45
- Plant response rating, Surinam Grass [3, 22]: 85
- Surinam Grass plant response rating [3, 23]: 100
- Crabgrass, Large plant response rating [4, 17]: 100
- Crabgrass, Large plant response rating [4, 18]: 100
- Plant response rating (0 to 100), Crabgrass, Large ([4]; Postemergence, 31 g ai/ha): 0
- Plant response rating, Crabgrass, Large [4, 19]: 0
- Plant response rating, Crabgrass, Large [4, 20]: 10
- Plant response rating, Crabgrass, Large [4, 21]: 60
- Plant response rating, Crabgrass, Large [4, 22]: 60
- Crabgrass, Large plant response rating [4, 23]: 100
- Bermudagrass plant response rating ([5]; 62 g ai/ha, Preemergence, scale 0 to 100 (0 no effect, 100 complete control)): 100
- Bermudagrass plant response rating [5, 18]: 100
- Plant response rating (0 to 100), Bermudagrass ([5]; Postemergence, 31 g ai/ha): 0
- Plant response rating, Bermudagrass [5, 19]: 0
- Plant response rating, Bermudagrass [5, 20]: 0
- Plant response rating, Bermudagrass [5, 21]: 70
- Plant response rating, Bermudagrass [5, 22]: 90
- Bermudagrass plant response rating [5, 23]: 100
- Sunflower plant response rating [6, 17]: 85
- Sunflower plant response rating [6, 18]: 100
- Plant response rating, Sunflower [6, 22]: 45
- Sunflower plant response rating [6, 23]: 100
- Plant response rating (0 to 100), Lambsquarters ([7]; 31 g ai/ha): 0
- Plant response rating, Lambsquarters ([7]; 62 g ai/ha): 0
- Plant response rating, Lambsquarters ([7]; 125 g ai/ha): 0
- Plant response rating, Lambsquarters ([7]; 250 g ai/ha): 10
- Soybean plant response rating [8, 17]: 80
- Soybean plant response rating [8, 18]: 100
- Plant response rating (0 to 100), Soybean ([8]; Postemergence, 31 g ai/ha): 0
- Plant response rating (0 to 100), Soybean ([8]; Postemergence, 62 g ai/ha): 40
- Plant response rating, Soybean [8, 20]: 50
- Plant response rating, Soybean [8, 21]: 80
- Plant response rating, Soybean [8, 22]: 0
- Soybean plant response rating [8, 23]: 100
- Plant response rating, Morningglory ([9]; Postemergence, 125 g ai/ha): 70
- Morningglory plant response rating [9, 24]: 100
- Morningglory plant response rating [9, 25]: 70
- Plant response rating, Morningglory ([9]; Preemergence, 500 g ai/ha): 100
- Plant response rating, Foxtail, Giant ([10]; Postemergence, 125 g ai/ha): 90
- Foxtail, Giant plant response rating [10, 24]: 100
- Foxtail, Giant plant response rating [10, 25]: 100
- Plant response rating, Foxtail, Giant ([10]; Preemergence, 500 g ai/ha): 100
- Ryegrass, Italian plant response rating [11, 17]: 100
- Ryegrass, Italian plant response rating [11, 18]: 100
- Plant response rating (0 to 100), Ryegrass, Italian ([11]; Postemergence, 31 g ai/ha): 0
- Plant response rating (0 to 100), Ryegrass, Italian ([11]; Postemergence, 62 g ai/ha): 40
- Plant response rating, Ryegrass, Italian [11, 20]: 90
- Plant response rating, Ryegrass, Italian [11, 21]: 90
- Plant response rating, Ryegrass, Italian [11, 22]: 100
- Ryegrass, Italian plant response rating [11, 23]: 100
- Kochia plant response rating [12, 17]: 100
- Kochia plant response rating [12, 18]: 100
- Plant response rating (0 to 100), Kochia ([12]; Postemergence, 31 g ai/ha): 0
- Plant response rating, Kochia [12, 19]: 0
- Plant response rating, Kochia [12, 20]: 60
- Plant response rating, Kochia [12, 21]: 60
- Plant response rating, Kochia [12, 22]: 80
- Kochia plant response rating [12, 23]: 100
- Plant response rating, Crabgrass, Large ([13]; Postemergence, 125 g ai/ha): 90
- Crabgrass, Large plant response rating [13, 24]: 90
- Crabgrass, Large plant response rating [13, 25]: 100
- Plant response rating, Crabgrass, Large ([13]; Preemergence, 500 g ai/ha): 100
- Plant response rating, Barnyardgrass ([14]; Postemergence, 125 g ai/ha): 90
- Barnyardgrass plant response rating [14, 24]: 90
- Barnyardgrass plant response rating [14, 25]: 90
- Plant response rating, Barnyardgrass ([14]; Preemergence, 500 g ai/ha): 100
- Plant response rating, Sedge, Umbrella [15]: 100
- Pigweed plant response rating [16, 17]: 55
- Pigweed plant response rating [16, 18]: 100
- Plant response rating (0 to 100), Pigweed ([16]; Postemergence, 31 g ai/ha): 0
- Plant response rating (0 to 100), Pigweed ([16]; Postemergence, 62 g ai/ha): 0
- Plant response rating, Pigweed [16, 20]: 0
- Plant response rating, Pigweed [16, 21]: 60
- Plant response rating, Pigweed [16, 22]: 50
- Pigweed plant response rating [16, 23]: 100
